Measured values reported in patent US20190369111A1, “MOLECULAR KINETICS EVALUATION METHOD AND SCREENING METHOD” (Tokyo University of Science Foundation, priority 2016, published 2019).

Molecular target: T1, wild-type K-Ras protein (Homo sapiens, UniProt P01116)
T1 construct: expressed in transfected cells; host or cells: HeLa cells, transient transfection
Experiment: Degradation (knockdown) of forcibly expressed wild-type K-Ras protein in HeLa cells, Western blot analysis
Type: cell-based
Protocol: A plasmid expressing the wild-type K-Ras protein (K-Ras-WT) was prepared, as in Reference Example 1.
As in Reference Example 1, the plasmid was introduced into HeLa cells to transiently overexpress the wild-type K-Ras protein (specifically, a fusion protein of the wild-type K-Ras protein and GFP through a HA tag) or a DsRed protein for comparison in the cells. HeLa cells into which the plasmid had been introduced were seeded in a 24-well plate at a cell density of 4×10^4 cells/well, and then cultured under conditions of 37° C. and 5 vol % CO2 for 40 hours.
Culture was performed for 40 hours after introduction of the plasmid, and then TUS-007 was added to HeLa cells as follows. As a medium, a serum-free medium (37° C.) in which 1 mass % L-glutamine solution (Sigma-Aldrich) was added to D-MEM (high D-glucose, phenol red, sodium pyruvate (Wako Pure Chemical Industries, Ltd.)) was used. […]
After electrophoresis, proteins were transferred to a PVDF membrane (Immobion™-P, Millipore) under conditions of 100 V and 120 minutes using a tank-type blotting device and a transfer buffer (25 mM Tris-HCl, 195 mM glycine, 0.01% SDS, 15% methanol). […] Subsequently, the membrane was treated with a chemiluminescence reagent Immobilon™ Western (Millipore), and then chemiluminescence was detected using a lumino image analyzer LAS-3000 (FUJIFILM Corporation). […]

T1 sequence (P01116 1-188 isoform P01116-2): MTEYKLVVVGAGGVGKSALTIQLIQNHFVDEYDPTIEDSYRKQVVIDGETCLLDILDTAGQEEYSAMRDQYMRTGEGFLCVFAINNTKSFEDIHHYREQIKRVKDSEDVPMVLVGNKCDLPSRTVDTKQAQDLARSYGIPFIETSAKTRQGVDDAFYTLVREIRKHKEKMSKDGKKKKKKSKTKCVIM

For CC[C@@H](C)[C@H](NC(=O)CCCCCCNC(=O)[C@H](CC(C)C)NC(=O)CNC(=O)c1cc(Cl)ccc1Cl)C(=O)Nc1ccc2[nH]c(Cc3c[nH]c4ccccc34)nc2c1 [TUS-007], the “amount of wild-type K-Ras protein” value (24 hours after addition, relative to control (DMSO)) was “the amount of the wild-type K-Ras protein was reduced” and the “amount of wild-type K-Ras protein when MLN2238 is added together” value (both TUS-007 and MLN2238 added) was “the amount of the wild-type K-Ras protein was increased as compared with the amount of the control (DMSO)”.
